Experimental data: patent US10654867B2 (Genentech, Inc., priority 2016, dated 2020)

Columns and labels:
[1] = biological target: T1, estrogen receptor alpha (ESR1) in MCF7 breast cancer cells (Homo sapiens, UniProt P03372); experiment: Breast Cancer Cell ERa High Content Fluorescence Imaging Degradation Assay (ER-alpha MCF7 HCS); assay type: cell-based; set-up: endogenous in cells; host or cells: MCF7 breast cancer cells; key to ERalpha (WT) MCF7HCS (Sinf): % change in ERα level; DMSO = 0%, fulvestrant = 100% change; conditions: 4 hours, plateau of the maximal effect; for ER-alpha MCF7HCS Sinf: DMSO and fulvestrant define 0% and 100% change in ESR1, Table 1a; for ERalpha (WT) MCF7HCS (Sinf): DMSO and fulvestrant define 0% and 100% change in ESR1, Table 1b
T1 sequence (P03372 1-595): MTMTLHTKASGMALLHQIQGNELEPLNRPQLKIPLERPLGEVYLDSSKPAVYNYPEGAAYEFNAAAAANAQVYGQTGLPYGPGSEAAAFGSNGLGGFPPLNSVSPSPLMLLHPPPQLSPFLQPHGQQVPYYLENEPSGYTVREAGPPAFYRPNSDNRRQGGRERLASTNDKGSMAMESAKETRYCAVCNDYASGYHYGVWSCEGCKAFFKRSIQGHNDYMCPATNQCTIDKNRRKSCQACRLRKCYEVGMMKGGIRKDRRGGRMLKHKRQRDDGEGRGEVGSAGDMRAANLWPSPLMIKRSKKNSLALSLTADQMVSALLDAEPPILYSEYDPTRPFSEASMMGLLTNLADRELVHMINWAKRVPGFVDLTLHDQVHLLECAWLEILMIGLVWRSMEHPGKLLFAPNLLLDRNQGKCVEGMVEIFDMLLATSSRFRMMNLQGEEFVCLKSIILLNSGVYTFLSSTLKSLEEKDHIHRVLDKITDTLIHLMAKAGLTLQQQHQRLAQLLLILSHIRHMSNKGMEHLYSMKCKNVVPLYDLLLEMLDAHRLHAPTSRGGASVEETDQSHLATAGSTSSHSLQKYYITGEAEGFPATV
Outline: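 MCF7 cells in phenol red-free RPMI with 10% charcoal-stripped FBS were exposed 4 h at 37 °C to 10-point 1.8× dilutions (0.05–835 nM final, 0.84% DMSO); fulvestrant served as control. After fixation, ESR1 was immunostained (F10 mAb, Alexa488) with Hoechst nuclear masking, and nuclear ESR1 fluorescence was quantified by imaging.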

[2] = biological target: T1, estrogen receptor alpha (ESR1) in MCF7 breast cancer cells; experiment: as above; assay type: cell-based; set-up: MCF7 breast cancer cells were seeded on day 1 at a density of 10,000 cells per well; endogenous in cells; host or cells: MCF7 breast cancer cells; conditions: 4 hours, plateau of the maximal effect, DMSO and fulvestrant define 0% and 100% change in ESR1, Table 1b
Method: All of the exemplary Formula I, II, and III compounds in Tables 1a and 1b were made and characterized by LCMS [M+H]^+ (liquid chromatography mass spectroscopy) with detection of parent ion. All of the exemplary Formula I, II, and III compounds in Tables 1a and 1b were tested for binding to ERa (Estrogen Receptor alpha) and biological activity according to the assays, protocols, and procedures of Examples 901-907. ER-alpha MCF7 HCS Sinf (%) values in Tables 1a and 1b were measured by the Breast Cancer Cell ERa High Content Fluorescence Imaging Degradation Assay of Example 901. ER-alpha MCF7 HCS EC50 (μM) values in Tables 1a and 1b were measured by the in vitro cell proliferation assays described in Examples 902 and 903. The rat uterine wet weight assays of Examples 906 and 907 allow rapid determination of compound antagonist activity in an ER responsive tissue (immature rat uterus) while competing against the native ER ligand estradiol, i.e. antagonist mode (Ashby, J.; et al (1997) Regulatory toxicology and pharmacology: RTP, 25 (3):226-31). […]
MCF7 breast cancer cells were seeded on day 1 at a density of 10,000 cells per well in 384 well poly-lysine coated tissue culture plate (Greiner # T-3101-4), in 50 μL/well RPMI (phenol red free), 10% FBS (Charcoal stripped), containing L-glutamine. […] Quantitative fluorescence imaging of ESR1 was carried out using a Cellomics Arrayscan V (Thermo). […]

Row | SMILES | ER-alpha MCF7HCS Sinf [1] | ERalpha (WT) MCF7HCS (Sinf) [1] | also measured
1 | C[C@@H]1Cc2[nH]c3ccccc3c2[C@@H](c2c(F)cc(NC3CN(CCCF)C3)cc2F)N1CC(F)(F)F [Example 152, N-(3,5-difluoro-4-((1S,3R)-3-methyl-2-(2,2,2-trifluoroethyl)-2,3,4,5-tetrahydro-1H-pyrido[4,3-b]indol-1-yl)-phenyl)-1-(3-fluoropropyl) azetidin-3-amine] | −99% |  | 
2 | C[C@H]1Cc2[nH]c3ccccc3c2[C@H](c2c(F)cc(NC3CN(CCCF)C3)cc2F)N1CC(F)(F)F [Example 153, N-(3,5-difluoro-4-((1R,3S)-3-methyl-2-(2,2,2-trifluoroethyl)-2,3,4,5-tetrahydro-1H-pyrido[4,3-b]indol-1-yl)-phenyl)-1-(3-fluoropropyl) azetidin-3-amine] | −30% |  | 
3 | COc1cc2c3c([nH]c2cn1)[C@@H](c1c(F)cc(NC2CN(CCCF)C2)cc1F)N(CC(F)(F)CO)[C@H](C)C3 [Example 161, 3-((1R,3R)-1-(2,6-Difluoro-4-((1-(3-fluoropropyl)azetidin-3-yl)amino)phenyl)-6-methoxy-3-methyl-3,4-dihydro-1H-pyrrolo[2,3-c:5,4-c′]dipyridin-2(9H)-yl)-2,2-difluoropropan-1-ol] |  | −97.3 | 
4 | C[C@H]1Cc2sc3ccccc3c2[C@H](c2c(F)cc(NC3CN(CCCF)C3)cc2F)N1CC(F)(F)CO [Example 165, 3-((1S,3S)-1-(2,6-difluoro-4-((1-(3-fluoropropyl)azetidin-3-yl)amino)phenyl)-3-methyl-3,4-dihydrobenzo[4,5]thieno[3,2-c]pyridin-2(1H)-yl)-2,2-difluoropropan-1-ol] |  | −92.3 | 
5 | C[C@@H]1Cc2sc3ccccc3c2[C@@H](c2c(F)cc(NC3CN(CCCF)C3)cc2F)N1CC(F)(F)CO [Example 166, 3-((1R,3R)-1-(2,6-difluoro-4-((1-(3-fluoropropyl)azetidin-3-yl)amino)phenyl)-3-methyl-3,4-dihydrobenzo[4,5]thieno[3,2-c]pyridin-2(1H)-yl)-2,2-difluoropropan-1-ol] |  | −101 | 
6 | C[C@@H]1Cc2oc3ccccc3c2[C@@H](c2c(F)cc(OCCN3CC(CF)C3)cc2F)N1CC(F)(F)CO [Example 170] |  |  | ERalpha (WT) MCF7HCS (Sinf) [2]: −93
